Data reported in paper PMC11187126, “Structure and dynamics of the pyroglutamylated RF-amide peptide QRFP receptor GPR103” (Nature Communications, 2024).
Like-named read-outs stand apart in the source and are kept apart here. No end group written: not given here.

Molecular target: T1, GPR103 F25N-termA (Homo sapiens, UniProt Q96P65, F25A)
T1 construct: we used human full-length QRFPR-encoding plasmids; expressed in transfected cells; host or cells: HEK293 cells, pCAGGS vector
T1 sequence (Q96P65 1-431 F25A): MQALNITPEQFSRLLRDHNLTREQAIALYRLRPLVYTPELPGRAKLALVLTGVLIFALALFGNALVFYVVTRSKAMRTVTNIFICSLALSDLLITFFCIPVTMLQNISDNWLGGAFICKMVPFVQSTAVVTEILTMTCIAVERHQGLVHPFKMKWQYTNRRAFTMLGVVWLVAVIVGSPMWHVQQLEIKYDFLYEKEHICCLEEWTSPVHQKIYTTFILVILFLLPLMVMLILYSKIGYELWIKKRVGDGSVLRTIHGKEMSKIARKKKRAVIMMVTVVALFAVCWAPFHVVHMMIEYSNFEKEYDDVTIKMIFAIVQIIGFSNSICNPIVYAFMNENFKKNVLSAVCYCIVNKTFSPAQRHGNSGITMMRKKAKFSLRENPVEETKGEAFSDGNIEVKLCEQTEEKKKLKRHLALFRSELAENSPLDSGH
Assay: TGFα shedding assay; Exp. level >WT (1:1)
Type: cell-based
Protocol: For the TGFα shedding assay and the flow cytometry analysis, we used human full-length QRFPR-encoding plasmids. Specifically, GPR103 was N-terminally modified with an HA signal sequence followed by a FLAG epitope and then a flexible linker ([…]; the FLAG epitope is underlined) and inserted into the pCAGGS vector. Plasmid encoding GPR103 mutants were generated using Quickchange Site-Directed Mutagensis kit (Agilent).
The TGFα shedding assay was performed as described previously with minor modifications. Plasmid transfection was performed in a 6-well plate with a mixture of 500 ng (per well in a 6-well plate) AP-TGFα-encoding plasmid and 200 ng GPR103-encoding plasmid. After 1-day culture, the transfected cells were harvested by trypsinization, pelleted by centrifugation at 190 × g for 5 min, and washed once with 5 mM HEPES (pH 7.4)-containing Hank’s Balanced Salt Solution (HBSS). After centrifugation, the cells were resuspended in 8 mL of the HEPES-containing HBSS. The cell suspension was seeded in a 96-well culture plate (cell plate) at a volume of 90 μL (per well hereafter) and incubated in a 37 °C incubator with 5% CO2 for 30 min. […] After spinning the cell plates at 190 × g for 2 min, 80 μL of conditioned media was transferred to an empty 96-well plate (conditioned media (CM) plate). Then, 80 μL of AP reaction solution (10 mM p-nitrophenylphosphate (p-NPP), 120 mM Tris-HCl (pH 9.5), 40 mM NaCl, and 10 mM MgCl2) was dispensed into the cell plates and the CM plates. Absorbance at 405 nm of the plates was measured using a microplate reader (SpectraMax 340 PC384, Molecular Devices) before and after 1-h incubation at room temperature. Ligand-induced AP-TGFα release was calculated by subtracting spontaneous AP-TGFα release signal from ligand-induced AP-TGFα release signal. The AP-TGFα release signals were fitted to a four-parameter sigmoidal concentration–response curve, using the Prism 10 software (GraphPad Prism). For each replicate experiment, the pEC50 parameter (negative logarithmic values of EC50 values) of the individual GPR103 mutants were normalized to that of the wild-type GPR103 performed in parallel, and resulting ∆pEC50 values were used to denote ligand response activity of the mutants. […]
Exp. le vel: WT (1:5 0)Exp. le vel: WT (1:5 0)Exp. le vel: WT (1:5 0)Exp. le vel: WT (1:2 0)Exp. le vel: WT (1:2 0)Exp. le vel: WT (1:1 0) […]
L1 4N - t e r mA F2 5N - t e r mA I 2 6N - t e r mA Y 2 9N - t e r mA C 9 82 .5 7A T10 22 .6 1A Exp . l eve l: WT (1 :5)Exp . l evel : >WT (1 :1)Exp. le vel: WT (1:2 0)Exp. le vel: WT (1:2 0)Exp. le vel: WT (1:5 0)Exp . l eve l: WT (1 :1) […]
Exp. le vel: WT (1:1 0)Exp. le vel: WT (1:2 0) C 1 1 83 .2 5AExp. le vel: WT (1:5 0)Exp. le vel: WT (1:5 0)Exp. le vel: WT (1:2 0)Exp . l eve l: WT (1 :5) […]
Exp. le vel: WT (1:5 0)Exp. le vel: WT (1:1 0)Exp. le vel: WT (1:5 0) E203ECL2AExp . l evel : >WT (1 :1)Exp. le vel: WT (1:5 0)Exp. le vel: WT (1:5 0) […]
Exp . l eve l: WT (1 :1) F28Exp. le vel: WT (1:5 0) C 2 8 56 .4 7AExp. le vel: WT (1:2 0) WExp. le vel: WT (1:2 0) F28Exp. le vel: WT (1:5 0)Exp . l evel : >WT (1 :1) […]
Exp. le vel: WT (1:5 0)Exp. le vel: WT (1:5 0) C 3 2 77 .4 8AExp . l eve l: WT (1 :5)Exp . l evel : >WT (1 :1)Exp . l evel : >WT (1 :1) […]
Suppl eme nt ary Figure 1 | Mutational analysis of GPR103. […]
mutants. Data are presented as mean values ± SEM, normally n=3-5; dots), each performed in triplicate. b-d Cell-surface expression (b) and QRFP26-in-duced activation of GPR103 (c, d) were analyzed by the flow cytometry and the TGFα shedding assay, respectively. From the concentration–response curves (a), Emax (c) and ΔpEC50 (d) values relative to the wild type were calculated. Colors in the mutant bars indicate an expression level matching to that of titrated wild type. Statistical analyses were performed using the ordinary one-way ANOVA followed by Dunnett tests with the expression-matched […]

Emax (Exp. #1): 108.31 % WT
Emax (Exp. #2): 103.77 % WT
Emax (Exp. #3): 108.41 % WT
Emax (mean, read-out: Emax): 107%
EC50 (n = 3): 79.4 nM
Emax (n = 3, read-out: Emax): 110 ± 1.2%
Substance: TSGPLGNLAEELNGYSRKKGGFSFRF-NH2 [QRFP26]
